# Where “and” joins values, the source holds several entries; their conditions need not be identical. Identical values can stand only once.
# Legend:
# [1] = system: lymphoid organs (spleen and thymus), splenocytes; experiment: Test 3: body, spleen and thymus weight and splenocyte concentration; type: in vivo, mouse (male B6 D2 F1); conditions: 100 mg/kg/day for 5 consecutive days, oral
# Method: Evaluation of the effect of repeated oral administrations of ST 722 on the body, spleen and thymus weight, and on the splenocyte concentration in mice.
# Male B6 D2 F1 mice (C. River) aged 10 weeks (5 animals each group) were orally treated with the substance ST 722 at the dose of 100 mg/kg/day for 5 consecutive days. Twenty-four hours after the last administration, the animals were sacrificed, the organs removed and weighed, and the splenocyte number determined.
# [2] = system: Staphylococcus aureus (S. aureus LC1); experiment: Protective effect in subcutaneous experimental infection in mice; type: in vivo, Staphylococcus aureus in mouse (male CD1); conditions: for Number of bacteria/mouse: 24 hours
# Method: Male CD1 (C. River) mice aged 9 weeks were used (4 animals per group).
# A pathogenic strain of Staphylococcus aureus (S. aureus LC1), isolated from a systemic infection in nude mice, was utilized.
# The bacterial cells (kept under liquid nitrogen) are thawed and seeded in 10 ml of TSB medium and finally incubated for approximately 18 hours at 37° C.
# The culture is then diluted in sterile saline so as to have 2.2×10^7 bacterial cells in a volume of 0.2 ml.
# ST 722 was administered subcutaneously, immediately after bacterial inoculation, at the doses of 5, 20, and 50 mcg in 0.2 ml of sterile saline (single treatment).
# ST 722 was administered subcutaneously at a dose of 50 mcg (in 0.2 ml of sterile saline) immediately after bacterial inoculation and again 5 hours later, i.e. 100 total mcg per mouse (double treatment).
# The "in vivo" experimental model described by Grunberg et al. (GRUNBERG, E., BERGER, J., BESKID, G., CLEELAND, R., PRINCE, N. H. and TITSWORTH, E., 1967. Studies on the "in vitro" and "in vivo" chemotherapeutic properties of the antibiotics myxin. Chemotherapia 12, 272-281) was utilized.
# Briefly, it consisted of a subcutaneous injection into the center of the abdominal wall of the standardized bacterial suspension followed by the s.c. administration of the substance in the same area according to the 2 protocols above.
# After 24 hours, the animals were sacrificed, and the abdominal wall (including the peritoneum) was exicised from each animal.
# The tissue samples were first homogenized by a Potter-Elvehjem tissue grinder in 5 ml of a sterile saline, then a bacterial count was performed by plating the samples onto a S. aureus selective medium (Baird-Parker agar additioned with Ey tellurite enrichment), which allows to easily detect the number of Staphylococcus colonies.
# The number of colonies scored in a series of dilutions for each single sample consents to calculate the number of bacterial cells present in the infected tissue sample as follows: [formula] Where Zi is the number of dilutions performed, Ni is the number of plates prepared for each dilution, and Ci is the total number of bacteria scored in each dilution.
# [3] = system: mice; experiment: Assessment of behaviour and mortality in mice (Irwin's method); design: species or system mouse (male Crl:(CD-1)(ICR)BR); conditions: mouse, in vivo, po
# Method: (§1) The assessment of normal behaviour in mice was carried out following S. Irwin's method (Psychopharmacologia, 13, 222 [1968]). This method allows alterations in some behavioural, neurophysiologic and neurovegetative parameters to be detected, which are directly observable by the researcher. The study was conducted using male Crl:(CD-1)(ICR)BR mice (Charles River--Italy) weighing 22-25 g, following oral administration of the compounds suspended in carboxymethylcellulose (0.5% by weight in H2 O) to groups of 4 animals/dose.
# (§2) The animals were continously kept under observation for five hours following treatment and twice a day in the subsequent five days. Mortality was also observed during the overall test period.
# [4] = as above; design: species or system mouse (male Crl:(CD-1)(ICR)BR); conditions: mouse, in vivo; oral, dose 1000, 4 animals/dose
# Method: as §1, §2
# [5] = system: Helicobacter pylori NCTC 11637; experiment: In vitro synergistic effect of ST 722 and Bismuth Subcitrate; type: cell-based
# Method: CBS from the commercially available product De-Nol® (Gist-Brocades, Netherland), i.e. ammonium and potassium double salt of colloidal bismuth citrate hydroxide, was utilized by preparing a suspension of 10 mg/ml CBS in 1N NaOH. After diluting 1:10 in Mueller-Hinton broth, 8 serial two-fold dlitutions in the same medium were made. The compound ST 722 was dissolved in Mueller-Hinton broth at a starting concentration of 100 mcg/ml, then 7 serial two-fold dilutions were carried out.
# The "in vitro" anti-Helicobacter activity of both CBS and ST 722, alone and in association, was tested by utilizing the strain H. pylori NCTC 11637.
# A 24-hour culture of Helicobacter in Columbia agar medium supplemented with Vitox (Oxoid) and 7% defribinated horse blood is washed with Mueller-Hinton broth.
# Following densitometric evaluation (reading at 600 nm), the bacterial suspension was adjusted to a concentration of 1.0×10^9 cells/ml and 0.2-ml volumes were distributed into each well of a 96-well U-bottomed microtiter plate.
# A 1-μl volume of this bacterial suspension was then distributed, by means of a Steers-type replicator apparatus, into the wells of microtiter plates containing the substances, either alone or in association. The final bacterial inoculum contained approximately 1.0×10^6 bacterial cells.
# The procedure described by Garrod et al. (GARROD, L. P. and WATERWORTH, P. M., 1962. Methods of testing combined antibiotic bactericidal action and the significance of the results. J. Clin. Pathol. 15, 328-338) was utilized.
# Briefly, 250-μl volumes of each test substance, either alone or admixed in all the possible combinations, were additioned to 4.5 ml of Mueller-Hinton agar containing 5% defribinated horse serum. Volumes of 0.2 ml/well of the resulting solution were distributed into the wells of a microtiter plate, then seeded with 1 μl/well of a standardized bacterial suspension, and finally incubated for 48 hours at 37° C. in a 10% CO2 atmosphere.
# In order to evaluate the results obtained with combinations of antibiotics it was utilized the method (KROGSTAD, D. J. and MOELLERING, R. C., 1983. Antimicrobial combinations. In LORIAN, V., Antibiotics in Laboratory Medicine, 15, 537-549) based on the calculation of the Fractional Inhibitory Concentration Index (FIC index).
# FIC index is calculated as follows: [formula] Where (A) is the MIC of substance A in the association and (MICA) is the […] of the organism to substance A alone. FICA is the fractional inhibitory concentration of substance A. (B), (MICB) and FICB are defined in the same fashion for substance B.
# Based on these criteria, the effect of a combination of 2 substances is referred to as 'synergistic" when the FIC index is ≤0.5, "additive" with a FIC index=1, and "antagonist" when FIC index is >1.
smiles,measurement,setting,value
"CCCCCCCCCCCOC(=O)CC(C[N+](C)(C)C)OC(=O)CC(C)C [ST 722, Isovaleryl-L-Carnitine Undecyl Ester Chloride]",Body weight,[1],26.50 ± 0.53 g
same,Spleen weight,[1],73.25 ± 3.84 mg
same,Thymus weight,[1],38.80 ± 3.01 mg
same,specific immunotoxic effects on the considered parameters,[1],lack of specific immunotoxic effects
same,Number of bacteria/mouse,"[2]; double treatment s.c., 50 mcg twice (5 hours apart)",3.1×10^5 bacteria/mouse and 5.61 × 10^5 bacteria/mouse
same,reduction of the infective process,"[2]; single treatment s.c., 5 mcg",unable to reduce the infective process
same,Number of bacteria/mouse,"[2]; single treatment s.c., 5 mcg, control 1.11 × 10^8",1.21 × 10^8 bacteria/mouse
same,reduction of bacterial infection extent,"[2]; single treatment s.c., 20 and 50 mcg",dose-dependently reduced in an appreciable manner the bacterial infection extent
same,Number of bacteria/mouse,"[2]; single treatment s.c., 20 mcg, control 1.11 × 10^8",1.21 × 10^8 bacteria/mouse
same,Number of bacteria/mouse,"[2]; single treatment s.c., 50 mcg, control 1.11 × 10^8",5.61 × 10^5 bacteria/mouse
same,Symptoms,[3],"salivation, diarrhoea"
same,mortality at 120 h,[4],0%
same,MIC,"[5]; Helicobacter pylori, NCTC11637, substance alone, H. pylori NCTC 11637, 48 hours, read-out: MIC",1.56 µg/mL
same,FIC (fractional inhibitory concentration),[5]; ST 722 with CBS,0.12
